Values quoted from earlier work, collected in patent US8946301B2, “Targeting of T-lymphocytes to treat amyotrophic lateral sclerosis” (ALS Therapy Development Institute, priority 2011, dated 2015).
Structures can show the parent of a compound that is named as a salt.

What was measured:
[1] = cited from earlier work
[2] = tested on: peripheral blood mononuclear cells (lymphocytes and monocytes); details: published reports; cited from earlier work
patients with ALS = details: Borras-Blasco et al. 1998; cited from earlier work

In the case of `CCCCCCCCc1ccc(CCC(N)(CO)CO)cc1` [Fingolimod hydrochloride], the “solubility in 0.9% saline” value ([1]; 0.9% saline) is listed as “soluble”, the “solubility in aqueous buffers at or above pH 3.0” value ([1]; aqueous buffers, pH at or above 3.0) is listed as “very slightly soluble or practically insoluble” and the “solubility in aqueous buffers at or below pH 2.0” value ([1]; aqueous buffers, pH at or below 2.0) is listed as “soluble”. The solubility in water ([1]; water) was over 10%.

For `NC(CO)(CO)CCc1ccc(Sc2cccc(OCc3ccccc3)c2)cc1Cl` [KRP-203, 2-amino-2-[2-[2-chloro-4-(3-phenylmethoxyphenyl)sulfanylphenyl]ethyl]propane-1,3-diol], the “lymphocyte homing into peripheral lymph nodes” value [2] is listed as “enhanced”, the number of granulocytes [2] is listed as “not” and the “number of peripheral blood mononuclear cells (lymphocytes and monocytes)” value [2] is listed as “reduce the number”.

For `Nc1nc2ccc(OC(F)(F)F)cc2s1` [Riluzole™], the “muscular strength of ALS patients” value (patients with ALS) is listed as “does not appear to provide an improvement of muscular strength”.
